Patent US5712300A, “Hydroxamic acid derivatives useful for the treatment of diseases related to connective tissue degradation” (priority 1997, dated 1998)
pKi: −log10 of the molar value.

Tests used:
Format in all cases: biochemical
Collagenase = biological target: T1, Collagenase (Homo sapiens, UniProt P03956); assay: MMP inhibition by particle concentration fluorescence technique (collagenase); details: pH 7.5; 15 min enzyme preincubation; substrate 1-3 h at room temperature; read-out: MMP Inhibition Constants, Collagenase Ki
T1 sequence (P03956 100-469): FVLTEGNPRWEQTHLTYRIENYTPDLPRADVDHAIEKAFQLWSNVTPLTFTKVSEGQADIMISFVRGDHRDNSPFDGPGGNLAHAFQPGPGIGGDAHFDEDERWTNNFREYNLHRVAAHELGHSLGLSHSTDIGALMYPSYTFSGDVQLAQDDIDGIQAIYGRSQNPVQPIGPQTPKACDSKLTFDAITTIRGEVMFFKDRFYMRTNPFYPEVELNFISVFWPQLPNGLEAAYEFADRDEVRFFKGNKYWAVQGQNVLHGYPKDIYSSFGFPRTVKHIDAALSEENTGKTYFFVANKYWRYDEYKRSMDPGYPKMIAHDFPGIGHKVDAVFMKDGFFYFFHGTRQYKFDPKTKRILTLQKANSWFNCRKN
Summary of the method: (§1)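 Compound serially diluted two-fold in 50 mM Tris-HCl pH 7.5, 150 mM NaCl, preincubated 15 min with activated enzyme at room temperature. Fluorescein/biotin-tagged substrate then added for 1-3 hours in the dark. Intact substrate captured on avidin-coated particles; fluorescence signal indicates inhibition.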

Stromelysin = Stromelysin (Homo sapiens, UniProt P08254); assay: MMP inhibition by particle concentration fluorescence technique (stromelysin); details: pH 7.5; 15 min enzyme preincubation; substrate 1-3 h at room temperature; read-out: MMP Inhibition Constants, Stromelysin Ki
Summary of the method: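 Fluorescein- and biotin-labelled substrate captured on avidin particles after reaction; intact, uncleaved substrate retains fluorescence, so signal rises with inhibition. Activated enzyme incubated with two-fold serial compound dilutions 15 minutes at room temperature.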

Gelatinase = assay: MMP inhibition by particle concentration fluorescence technique (gelatinase); details: pH 7.5; 15 min enzyme preincubation; substrate 1-3 h at room temperature; read-out: MMP Inhibition Constants, Gelatinase Ki
Summary of the method: as §1

Chain of Stromelysin (P08254 100-477): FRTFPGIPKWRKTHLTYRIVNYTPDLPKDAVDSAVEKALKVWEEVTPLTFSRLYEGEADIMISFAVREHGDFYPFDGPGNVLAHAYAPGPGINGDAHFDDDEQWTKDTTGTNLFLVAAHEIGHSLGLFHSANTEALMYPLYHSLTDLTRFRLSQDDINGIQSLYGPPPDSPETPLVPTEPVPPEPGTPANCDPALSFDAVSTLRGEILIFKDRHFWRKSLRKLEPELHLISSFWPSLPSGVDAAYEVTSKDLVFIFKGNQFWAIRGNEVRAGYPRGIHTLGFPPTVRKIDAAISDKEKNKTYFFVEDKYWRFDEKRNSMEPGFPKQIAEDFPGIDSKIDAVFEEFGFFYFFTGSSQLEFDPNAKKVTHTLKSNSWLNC

Row | pKi (Collagenase) | pKi (Stromelysin) | pKi (Gelatinase) | Structure (SMILES)
1 | 8.61 | 7.59 | 8.27 | CC(C)C[C@@]1(CC(=O)NO)CCN([C@@H](Cc2ccccc2)C(=O)Nc2ccc(F)cc2)C1=O [Example 42, [S-(R*,R*)]-N^1-(4-Fluorophenyl)-N^3-hydroxy-3-(2-methylpropyl)-2-oxo-α^1-(phenylmethyl)-1,3-pyrrolidinediacetamide]
2 | 7.44 | 6.14 | 7.30 | CNC(=O)[C@H](CC(C)C)N1CC[C@](CC(=O)NO)(CC(C)C)C1=O [Example 32, [S-(R*,R*)]-N^3 -Hydroxy-N^1-methyl-α^1,3-bis(2-methylpropyl)-2-oxo-1,3-pyrrolidinediacetamide]
3 | 7.69 | 5.40 | 7.96 | CC(C)C[C@@]1(CC(=O)NO)CCN([C@@H](Cc2ccccc2)C(=O)NC2CCNCC2)C1=O [Example 44, [S-(R*,R*)]-N^3 -Hydroxy-3-(2-methylpropyl)-2-oxo-α^1-(phenylmethyl)-N^1-(4-piperdinyl)-1,3-pyrrolidinediacetamide]

More lines, now with the values behind:

Row | Structure (SMILES) | pKi (Collagenase) | pKi (Stromelysin) | pKi (Gelatinase)
4 | CC(C)C[C@@]1([C@@H](CCN2C(=O)c3ccccc3S2(=O)=O)C(=O)NO)CCN(CCc2ccccc2)C1=O (relative stereo) [Example 69, α-[2-(o-benzoic sulfimide)ethyl]-N-hydroxy-3-(2-methylpropyl)-2-oxo-1-(2-phenylethyl)3-pyrrolidineacetamide] | 5.92 | 6.67 | 6.30
5 | O=C(NCC[C@@H](C(=O)NO)[C@]1(CCCO)CCN(CCc2ccccc2)C1=O)c1ccc(F)c(F)c1 (relative stereo) [Example 94, α-[2-[(3,4-Difluorobenzoyl)amino]ethyl]-N-hydroxy-3-(3-hydroxypropyl)-2-oxo-1-(2-phenylethyl)-3-pyrrolidineacetamide] | 7.87 | 7.80 | 8.92
6 | CC(C)C[C@@]1([C@@H](CCN2C(=O)c3ccc(C(F)(F)F)cc3C2=O)C(=O)NO)CCN(CCc2ccccc2)C1=O (relative stereo) [Example 65, N-Hydroxy-3-(2-methylpropyl)-2-oxo-1-(2-phenylethyl)-α-[2-(5-trifluoromethyl-1,3-dihydro-1,3-dioxo-2H-isoindol-2-yl)ethyl]-3-pyrrolidineacetamide] | 6.29 | 5.98 | 6.64
